The values below come from publication PMC10644720 (Frontiers in Pharmacology, 2023).

Data set [1] concerns mesenteric artery thrombosis. The data set is described as follows: Ferric chloride-induced mesenteric thrombosis in mice. Format: in vivo, C57BL/6 mice. Particulars: luteolin 35 μM/kg or aspirin 0.5 mM/kg i.p., 30 min before FeCl3. On the procedure:
A method reported in the literature was used to observe mesenteric artery thrombosis in mice ([Bonnard and […], 2015]). […] The mice were anesthetized by an intraperitoneal injection of pentobarbital (45 mg/kg). They were given an intraperitoneal injection of DMSO, luteolin, or aspirin. They were also given an orbital vein injection of 5 μg/kg rhodamine (Cat No. 83697-250 MG; Sigma-Aldrich, St. Louis, MO, United States) ([Bonnard and […], 2015]), respectively. The mesenteric vessels were exposed by opening the abdominal cavity, and small mesenteric arteries with a diameter of approximately 150-250 μm were selected under the microscope. […] During thrombosis, images were taken every 1 min for the first 10 min and every 5 min after 10 min using an MSHOT MD50 camera (Micro Shot Technology Ltd., Guangzhou, China) and an Olympus ix73 microscope (Olympus Corp., Shinjuku, Japan). […] The size of the thrombus formation was calculated using ImageJ software.

A short description of a further data set: Tail bleeding in mice. Format: in vivo, C57BL/6 mice. The settings on record: luteolin 35 μM/kg or aspirin i.p., 30 min after injection; vs DMSO. On the procedure:
The tail break hemorrhage experiment in mice was performed as previously reported, with slight modifications ([Liu et al., 2012]). […] Before the experiment, the mouse tails were immersed in saline for 3 min at 37°C. Then, 30 min after injection, the tails were quickly cut off using a surgical knife blade and placed in saline at 37°C. The cutting site was 5 mm from the end of the tail tip. The bleeding time of the broken tails was observed and recorded.

The next data set deals with human washed platelets. The data set is described as follows: Platelet ROS release assay (DCFH-DA). Type of data set: cell-based. The settings on record: luteolin 25 μM, BAY61-3606 63 nM. The protocol: The assay was performed as previously reported with minor modifications ([Arthur et al., 2012]; [Ye et al., 2020]). Briefly, WPs (500 × 10^9/L) were labeled with 5 μM Fluo-3AM (Cat No. IF0150; Solarbio) or 10 μM DCFH-DA (Cat No. D6883; Sigma, St. Louis, MO, United States) at 37°C for 30 min protected from light. […] In addition, 1 mM CaCl2 and collagen or convulxin were added to start the reaction. […] A ROS probe via a fluorescent enzyme marker was added. O2 ^− and H2O2 were measured using 2 μM Amplex Red (Cat No. ST010; Beyotime Institute of Biotechnology, Shanghai, China) or 2 μM Dihydroethidium (DHE, Cat No. S0063; Beyotime Institute of Biotechnology, Shanghai, China). O2 ^− and H2O2 were analyzed using a Fluoroskan Ascent fluorometer (Thermo Fisher, Waltham, Massachusetts, United States).

The subject of the next data set is NOXs. In words: NADPH oxidase (NOX) activity assay in platelet lysate. Format: cell-based, human. The settings on record: convulxin (5 ng/mL)- and collagen (10 μg/mL)-induced; VAS2870 10 μM. On the procedure:
MDA, SOD, GPx, and NADPH oxidase activity were measured as previously described ([Krotz et al., 2002]; [Paul et al., 2019]; [Pan et al., 2021]). After incubation and activation, the reaction was stopped by adding 10 mM EGTA. The platelets were pelleted by centrifugation at 20,000 × g for 10 min at 4°C and resuspended in Tyrode’s buffer with 0.1% phosphatase and protease inhibitors (Cat No. 04906837001, Roche Applied Science, Penzberg, Germany; Cat No. P-8340, Sigma, St. Louis, MO, United States). The platelets were disrupted by passing them 10 times through a 29-gauge needle, followed by centrifugation at 2000 × g for 10 min at 4°C to separate the supernatant and precipitate. The detection of MDA, SOD, and GPx in the supernatant was performed according to the kit’s instructions for SOD (Cat No. BC0170, Solarbio Life Science, Beijing, China), MDA (Cat No. S0131S, Beyotime Institute of Biotechnology, Shanghai, China) and GPx (Cat No. S0056, Beyotime Institute of Biotechnology, Shanghai, China). In order to determine NADPH oxidase (NOX) activity, platelet lysate (12.5 μg) was incubated with 10 µM lucigenin and 0.5 mM NADPH at 37°C in the dark. The absorbance values were detected at 450 nm using a spectrophotometer Multiskan FC (ThermoFisher Scientific Inc., Waltham, MA, United States). Protein content was determined by the Bradford method.

As for `CC(=O)Oc1ccccc1C(=O)O` [aspirin, reference compound], in data set [1], the “time of clot obstruction of blood vessels” value is listed as “significantly prolong” and the “time of initial thrombus formation” value was “Neither the 0.5 mM/kg aspirin group or 35 μM/kg luteolin group prolonged”. Besides, in the data set “Tail bleeding in mice”, the tail bleeding time result is reported as “significantly prolonged”.

With `COc1ccc(-c2cc3nccn3c(Nc3ncccc3C(N)=O)n2)cc1OC` [BAY61-3606, reference compound], the “effect on platelet ROS release” value in the data set on human washed platelets (collagen (10 μg/mL)-induced) is recorded as “decreasing levels”; with human washed platelets (convulxin (5 ng/mL)-induced), “decreased”.

For `c1ccc(Cn2nnc3c(Sc4nc5ccccc5o4)ncnc32)cc1` [VAS2870, reference compound], in the data set with NOXs, the NOXs activity entry is “significantly decreased”.
